Laboratory results taken from publication PMC11554538, “Region-independent active CNS net uptake of marketed H^+/OC antiporter system substrates” (Frontiers in Cellular Neuroscience, 2024).
Structures can show the parent of a compound that is named as a salt. Where two headings read alike, the source gives them in different places.

How the values were obtained:
[1] = in vitro; conditions: rat; for fraction unbound at 6 h: pH 7.4, Unbound fraction in plasma, fu,plasma
Procedure: Equilibrium dialysis was employed to determine the fraction of unbound drug in plasma (fu,plasma), homogenates of whole-brain (fu,brain) and the CNS regions of interest (fu,ROI) including the frontal cortex, parietal cortex, cerebellum, striatum, hippocampus, and spinal cord. […] Briefly, a Teflon 96-well plate (model HTD96b, HTDialysis LLC, Gales Ferry, CT, USA) with a cellulose membrane with a 12–14 kDa molecular weight cutoff was used. The cellulose membrane was treated according to the recommendations from the manufacturer before starting the experiment (HTDialysis LLC, Gales Ferry, CT, USA). Fresh plasma (n=3 rats per drug) was obtained on the day of the experiment and the pH of the plasma was adjusted to 7.40 using H3PO4. […] Whole brain and CNS regions of interest (n = 3–4 rats per drug) were homogenized in 1:9 (w:v) PBS pH 7.40. Diluted brain samples were individually spiked to a final concentration of 1,000 nM. Hundred μL of undiluted spiked plasma samples or homogenates were dialyzed against equal volumes of PBS, pH 7.40, for 6 h at 37°C at 200 rpm in an incubator with orbital shaking (MaxQ4450 Thermo Fisher Scientific, NinoLab, Sweden). One to three technical replicates were tested per biological replicate. Drug recovery and thermostability in plasma and brain were analyzed in each experiment by sampling spiked samples before and after the 6-h incubation. […] At the end of the 6-h incubation, 50 μL PBS sample from the receiver chambers was transferred into a Corning® 0.33 mL round-bottom polypropylene 96-well plate (VWR, Stockholm, Sweden) containing 50 μL blank plasma or 1:9 (w:v) brain homogenate using a multichannel pipette. Immediately after this step, 50 μL spiked plasma or brain homogenate was taken from the donor chambers and added to the same 96-well plate containing 50 μL of blank PBS. The 96-well plate was sealed with aluminum film, vortexed and stored at −20°C pending bioanalysis. The fraction of unbound drug in plasma was assessed as a ratio between buffer and plasma concentrations. The unbound fraction of drug in the diluted (D) CNS tissue homogenate (fu,hD) was calculated as: […]

[2] = in vitro; conditions: rat
[3] = rat, in vivo; for Cu,brainISF,ss (unbound steady-state concentration in brain interstitial fluid): male, Sprague-Dawley
[4] = cited from earlier work
[5] = in vitro; conditions: rat; remark: listed apart in the source
[6] = rat, 5 h
[7] = male, Sprague-Dawley, rat, in vivo
[8] = in vivo; conditions: male, Sprague-Dawley, rat, iv
[9] = in vivo; conditions: male, Sprague-Dawley, rat
[10] = brain homogenate, pH 7.4, Unbound fraction fu,ROI (fu,brain)
[11] = tissue homogenate, pH 7.4, Unbound fraction fu,ROI
[12] = cerebral microdialysis, ref Kitamura et al., 2016

CC(NC(C)(C)C)C(=O)c1cccc(Cl)c1 (centres unmarked) [Bupropion, bupropion hydrochloride]
Unbound fraction in plasma, fu,plasma ([1]; 6 h, pH 7.4): 0.327 ± 0.068 | fraction unbound at 6 h ([1]; plasma): 0.33 | fraction unbound at 6 h, 1000 nM [2, 10]: 0.209 ± 0.031 | fraction unbound at 6 h, 1000 nM [2, 11]: 0.142 ± 0.004 | Cu,brainISF,ss (unbound steady-state concentration in brain interstitial fluid) ([3]; 4 h): 9.3±4.6 ng/g brain | Kp,uu,ROI (unbound ROI-to-plasma concentration ratio) [3]: exceeding unity | Reported Kp,uu ([4]; cerebral microdialysis, ref Cremers et al., 2016): 1.9 (Cremers et al., [2016]) | Kp uu at 5 h ([5]; Kp,uu,cell,obs (observed unbound brain intracellular-to-extracellular concentration ratio)): 3.12 | Kp,uu,cell,obs (observed unbound brain intracellular-to-extracellular concentration ratio) [6]: 3.1 | Ctot,CSF,ss (total CSF concentration at steady state, assumed equal to unbound) ([7]; 4 h): 21.9±5.6

CC12CC3CC(C)(C1)CC(N)(C3)C2 [Memantine, memantine hydrochloride]
fraction unbound at 6 h ([1]; plasma): 0.543 ± 0.037 | Cu,brainISF,ss (unbound steady-state concentration in brain interstitial fluid) ([3]; 4 h): 194.3±38.5 ng/g brain | Kp,uu,ROI (unbound ROI-to-plasma concentration ratio) [3]: exceeding unity | Reported Kp,uu ([4]; cerebral microdialysis, ref Kawase et al., 2021a): 2.03 | Reported Kp,uu [4, 12]: 1.80 | Kp uu at 5 h [5]: 2.11 | Kp at 4 h [8]: 41.7

COc1ccc(CN(CCN(C)C)c2ccccn2)cc1 [Pyrilamine, Pyrilamine maleate]
fraction unbound at 6 h ([1]; plasma): 0.386 ± 0.093 | fraction unbound at 6 h, 1000 nM [2, 10]: 0.093 ± 0.012 | fraction unbound at 6 h, 1000 nM [2, 11]: 0.103 ± 0.013 | Cu,brainISF,ss (unbound steady-state concentration in brain interstitial fluid) ([3]; 4 h): 21.6±2.0 ng/g brain | Kp,uu,ROI (unbound ROI-to-plasma concentration ratio) [3]: exceeding unity | Reported Kp,uu [4, 12]: 2.50 (Kitamura et al., [2016]) | Kp uu at 5 h [5]: 1.88 | Ctot,CSF,ss (total CSF concentration at steady state, assumed equal to unbound) ([7]; 4 h): 7.7±1.9 | Difference between mean Kp,uu,ROI in the whole brain and Kp,uu,CSF ([7]; 4 h): 2.8 fold

COc1cccc(C2(O)CCCCC2CN(C)C)c1 (centres unmarked) [Tramadol, tramadol hydrochloride]
fraction unbound at 6 h ([1]; undiluted rat plasma pH 7.40, 500 nM (memantine 500 ng/mL), 6 h, 37°C, mean ± SD): 0.827 ± 0.027 | fraction unbound [2, 10]: 0.496 ± 0.128 | fraction unbound [2, 11]: 0.462 ± 0.064 | Cu,brainISF,ss (unbound steady-state concentration in brain interstitial fluid) [3]: 95.0±9.4 | Kp,uu,ROI (unbound ROI-to-plasma concentration ratio) [3]: exceeding unity | Reported Kp,uu ([4]; in vivo): 2.90 (Kitamura et al., [2016]) 2.30 (Kitamura et al., [2014]) | Kp uu [5]: 2.01 | Kp uu at 4 h [9]: 1.49 ± 0.49 | Ctot,CSF,ss (total CSF concentration at steady state, assumed equal to unbound) [7]: 47.7±8.2
